Results as given in patent US20220062240A1, “METHODS OF TREATING CANCER USING A CLK INHIBITOR” (BioSplice Therapeutics, Inc., priority 2018, published 2022).
Where two headings read alike, the source gives them in different places. One block for each compound: values may come before it.

Assays:
[1] = system: haematopoietic & lymphoid tumors (13 cell lines); assay: CellTiter-Glo Viability Assay, haematopoietic & lymphoid tumors; type: cell-based; conditions: Homo sapiens, inhibition of cancer cell proliferation
[2] = system: colorectal cancer (6 cell lines); assay: CellTiter-Glo Viability Assay, colorectal cancer; type: cell-based; conditions: Homo sapiens, inhibition of cancer cell proliferation
CLK2 = target: T1, CLK2 (Homo sapiens, UniProt P49760); assay: CLK2 kinase activity assay (Z-lyte, Ser/Thr 6 peptide); type: biochemical; conditions: recombinant CLK2 kinase, ATP 60 μM; read-out: EC50
T1 construct: purchased Thermo Fisher (Life Technologies), Z'-LYTE Kinase Assay Kits
Description: All reactions were performed in duplicate.

[3] = system: pancreatic cancer (8 cell lines); assay: CellTiter-Glo Viability Assay, pancreatic cancer; type: cell-based; conditions: Homo sapiens, inhibition of cancer cell proliferation
CLK3 = CLK3 (Homo sapiens, UniProt P49761); assay: CLK3 kinase activity assay (Z-lyte, Ser/Thr 18 peptide)
[4] = system: ovarian cancer (4 cell lines); assay: CellTiter-Glo Viability Assay, ovarian cancer; type: cell-based; conditions: Homo sapiens, inhibition of cancer cell proliferation
[5] = system: lung cancer (4 cell lines); assay: CellTiter-Glo Viability Assay, lung cancer; type: cell-based; conditions: Homo sapiens, inhibition of cancer cell proliferation
CAMA1 = assay: CellTiter-Glo Viability Assay, breast cancer; type: cell-based; conditions: Homo sapiens, CAMA-1, 96 h; CAMA1, breast cancer, four days; read-out: EC50
MCF7 = assay: CellTiter-Glo Viability Assay, breast cancer; type: cell-based; conditions: Homo sapiens, 96 h; MCF7, breast cancer, four days; read-out: EC50
HCC1599 = assay: CellTiter-Glo Viability Assay, breast cancer; type: cell-based; conditions: Homo sapiens, 96 h; HCC1599, breast cancer, four days; read-out: EC50
DU4475 = assay: CellTiter-Glo Viability Assay, breast cancer; type: cell-based; conditions: Homo sapiens, DU-4475, 96 h; DU4475, breast cancer, four days; read-out: EC50
ZR-75-1 = assay: CellTiter-Glo Viability Assay, breast cancer; type: cell-based; conditions: Homo sapiens, 96 h; ZR-75-1, breast cancer, four days; read-out: EC50
BT-549 = assay: CellTiter-Glo Viability Assay, breast cancer; type: cell-based; conditions: Homo sapiens, 96 h; BT-549, breast cancer, four days; read-out: EC50
T47D = assay: CellTiter-Glo Viability Assay, breast cancer; type: cell-based; conditions: Homo sapiens, 96 h, breast cancer, four days, read-out: EC50
MDA-MB-231-Luc = assay: CellTiter-Glo Viability Assay, breast cancer; type: cell-based; conditions: Homo sapiens, 96 h; MDA-MB-231-Luc, breast cancer, four days; read-out: EC50
[6] = system: liver cancer (3 cell lines); assay: CellTiter-Glo Viability Assay, liver cancer; type: cell-based; conditions: Homo sapiens, inhibition of cancer cell proliferation
[7] = system: prostate cancer (5 cell lines); assay: CellTiter-Glo Viability Assay, prostate cancer; type: cell-based; conditions: Homo sapiens
all 50 cell lines = assay: CellTiter-Glo Viability Assay, average across all cell lines; type: cell-based; conditions: Homo sapiens; across all 50 cell lines; read-out: average EC50 for inhibition of cancer cell proliferation
In short: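 Cells were plated at 300-3,000 per well in their own media, then treated with compound in duplicate, with DMSO wells as controls. After four days at 37° C and 5% CO2, CellTiter-Glo was added, and luminescence was read. EC50s were fitted.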

[8] = DND41, DND-41 cell line, read-out: Haematopoietic & Lymphoid tumors, EC50 (μM) DND-41
[9] = MV4-11, MV-4-11 cell line, read-out: Haematopoietic & Lymphoid tumors, EC50 (μM) MV-4-11
[10] = Rec1, REC-1 cell line, read-out: Haematopoietic & Lymphoid tumors, EC50 (μM) REC-1
[11] = SU-DHL-4, SUDHL4 cell line, read-out: Haematopoietic & Lymphoid tumors, EC50 (μM) SUDHL4
[12] = HL-60 cell line, read-out: Haematopoietic & Lymphoid tumors, EC50 (μM) HL-60
[13] = JM1 cell line, read-out: Haematopoietic & Lymphoid tumors, EC50 (μM) JM1
[14] = JURKAT, Clone E6-1 cell line, read-out: Haematopoietic & Lymphoid tumors, EC50 (μM) JURKAT, Clone E6-1
[15] = JeKo-1 cell line, read-out: Haematopoietic & Lymphoid tumors, EC50 (μM) JeKo-1
[16] = KASUMI-1 cell line, read-out: Haematopoietic & Lymphoid tumors, EC50 (μM) KASUMI-1
[17] = Loucy cell line, read-out: Haematopoietic & Lymphoid tumors, EC50 (μM) Loucy
[18] = MOLT-4 cell line, read-out: Haematopoietic & Lymphoid tumors, EC50 (μM) MOLT-4
[19] = TF-1 cell line, read-out: Haematopoietic & Lymphoid tumors, EC50 (μM) TF-1
[20] = TOLEDO cell line, read-out: Haematopoietic & Lymphoid tumors, EC50 (μM) TOLEDO
[21] = HCT-116, HCT116 cell line, read-out: Colorectal cancer, EC50 (μM) HCT116
[22] = HT-29, HT29 cell line, read-out: Colorectal cancer, EC50 (μM) HT29
[23] = SW-620, SW620 cell line, read-out: Colorectal cancer, EC50 (μM) SW620
[24] = DLD-1 cell line, read-out: Colorectal cancer, EC50 (μM) DLD-1
[25] = SW48 cell line, read-out: Colorectal cancer, EC50 (μM) SW48
[26] = SW480 cell line, read-out: Colorectal cancer, EC50 (μM) SW480
[27] = BXPC-3, BxPC3 cell line, read-out: Pancreatic cancer, EC50 BxPC3
[28] = CAPAN-1, Capan1 cell line, read-out: Pancreatic cancer, EC50 Capan1
[29] = Capan-2, Capan2 cell line, read-out: Pancreatic cancer, EC50 Capan2
[30] = MIA PaCa-2 cell line, read-out: Pancreatic cancer, EC50 MIA PaCa-2
[31] = PANC 05.04 cell line, read-out: Pancreatic cancer, EC50 PANC 05.04
[32] = PANC-1 cell line, read-out: Pancreatic cancer, EC50 PANC-1
[33] = UPAFII cell line, read-out: Pancreatic cancer, EC50 UPAFII
[34] = PA-1, PA1 cell line, read-out: Ovarian cancer, EC50 (μM) PA1
[35] = TOV112D, TOV-112D cell line, read-out: Ovarian cancer, EC50 (μM) TOV-112D
[36] = OV-90 cell line, read-out: Ovarian cancer, EC50 (μM) OV-90
[37] = OVCAR-3 cell line, read-out: Ovarian cancer, EC50 (μM) OVCAR-3
[38] = A-427, A427 cell line, read-out: Lung cancer, EC50 (μM) A427
[39] = HCC78, HCC-78 cell line, read-out: Lung cancer, EC50 (μM) HCC-78
[40] = NCI-H460 cell line, read-out: Lung cancer, EC50 (μM) NCI-H460
[41] = NCI-H522 cell line, read-out: Lung cancer, EC50 (μM) NCI-H522
[42] = SNU-398, SNU398 cell line, read-out: Liver cancer, EC50 SNU398
[43] = HEPG2 cell line, read-out: Liver cancer, EC50 HEPG2
[44] = PLC/PRF/5 cell line, read-out: Liver cancer, EC50 PLC/PRF/5
[45] = DU-145, read-out: Prostate cancer EC50 Du-145
[46] = PC-3, PC3 cell line, inhibition of cancer cell proliferation, read-out: Prostate cancer EC50 PC3
[47] = 22Rv1 cell line, inhibition of cancer cell proliferation, read-out: Prostate cancer EC50 22Rv1
[48] = LNCap clone FGC cell line, inhibition of cancer cell proliferation, read-out: Prostate cancer EC50 LNCap clone FGC
[49] = VCaP (Sigma) cell line, inhibition of cancer cell proliferation, read-out: Prostate cancer EC50 VCaP (Sigma)

T1 sequence (P49760 whole entry): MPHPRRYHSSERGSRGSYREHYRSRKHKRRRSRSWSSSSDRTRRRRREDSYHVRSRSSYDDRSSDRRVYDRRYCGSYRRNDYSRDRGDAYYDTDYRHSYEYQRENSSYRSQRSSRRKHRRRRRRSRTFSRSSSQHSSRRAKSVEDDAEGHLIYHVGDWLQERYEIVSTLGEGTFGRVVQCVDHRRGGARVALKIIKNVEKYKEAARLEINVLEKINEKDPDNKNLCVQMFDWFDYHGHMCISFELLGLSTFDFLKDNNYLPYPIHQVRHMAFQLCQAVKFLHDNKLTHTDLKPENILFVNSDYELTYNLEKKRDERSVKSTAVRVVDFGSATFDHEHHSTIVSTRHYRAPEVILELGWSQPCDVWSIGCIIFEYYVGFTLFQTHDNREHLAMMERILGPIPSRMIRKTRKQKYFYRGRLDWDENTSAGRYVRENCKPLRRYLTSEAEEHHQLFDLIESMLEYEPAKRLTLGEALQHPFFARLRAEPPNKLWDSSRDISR
Sequence of CLK3 (P49761 whole entry): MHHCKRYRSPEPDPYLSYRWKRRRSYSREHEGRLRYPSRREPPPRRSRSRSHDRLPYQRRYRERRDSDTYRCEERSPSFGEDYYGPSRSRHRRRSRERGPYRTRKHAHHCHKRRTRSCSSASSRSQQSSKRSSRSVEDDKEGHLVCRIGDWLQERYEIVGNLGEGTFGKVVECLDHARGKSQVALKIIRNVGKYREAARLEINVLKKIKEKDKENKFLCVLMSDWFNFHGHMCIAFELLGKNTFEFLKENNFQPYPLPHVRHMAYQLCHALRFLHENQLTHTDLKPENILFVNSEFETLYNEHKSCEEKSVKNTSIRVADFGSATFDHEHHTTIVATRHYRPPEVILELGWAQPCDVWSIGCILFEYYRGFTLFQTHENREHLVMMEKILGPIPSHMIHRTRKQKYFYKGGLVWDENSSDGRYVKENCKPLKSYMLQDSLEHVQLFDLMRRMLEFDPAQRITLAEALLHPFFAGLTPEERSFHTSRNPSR

EC50 [1, 8]: 0.129 µM
EC50 [1, 9]: 0.07 µM
EC50 [1, 10]: 0.453 µM
EC50 [1, 11]: 0.14 µM
EC50 [1, 12]: 0.769 µM
EC50 [1, 13]: 0.075 µM
EC50 [1, 14]: 0.466 µM
EC50 [1, 15]: 0.048 µM
EC50 [1, 16]: 0.25 µM
EC50 [1, 17]: 0.136 µM
EC50 [1, 18]: 0.404 µM
EC50 [1, 19]: 0.861 µM
EC50 [1, 20]: 0.077 µM
EC50 [2, 21]: 0.402 µM
EC50 [2, 22]: 1.43 µM
EC50 [2, 23]: 0.164 µM
EC50 [2, 24]: 0.658 µM
EC50 [2, 25]: 0.164 µM
EC50 [2, 26]: 0.22 µM
EC50 (CLK2): 1.3 nM
EC50 [3, 27]: 770 nM
EC50 [3, 28]: 761 nM
EC50 [3, 29]: 540 nM
EC50 [3, 30]: 112 nM
EC50 [3, 31]: 791 nM
EC50 [3, 32]: 1780 nM
EC50 [3, 33]: 357 nM
EC50 (CLK3): 17.6 nM
EC50 [4, 34]: 0.403 µM
EC50 [4, 35]: 0.192 µM
EC50 [4, 36]: 0.567 µM
EC50 [4, 37]: 0.179 µM
EC50 [5, 38]: 0.14 µM
EC50 [5, 39]: 0.666 µM
EC50 [5, 40]: 2.64 µM
EC50 [5, 41]: 0.157 µM
EC50 (CAMA1): 210 nM
EC50 (MCF7): 1960 nM
EC50 (HCC1599): 75 nM
EC50 (DU4475): 77 nM
EC50 (ZR-75-1): 358 nM
EC50 (BT-549): 409 nM
EC50 (T47D): 468 nM
EC50 (MDA-MB-231-Luc): 407 nM
EC50 [6, 42]: 57 nM
EC50 [6, 43]: 371 nM
EC50 [6, 44]: 1820 nM
EC50 [7, 45]: 459 nM
EC50 [7, 46]: 322 nM
EC50 [7, 47]: 283 nM
EC50 [7, 48]: 965 nM
EC50 [7, 49]: 574 nM
Compound: O=C(Nc1cncc(-c2ccc3[nH]nc(-c4cc5cnccc5[nH]4)c3c2)c1)C1CCCCC1 [Compound 47]
EC50 (all 50 cell lines): 516 nM

EC50 [1, 8]: 1 µM
EC50 [1, 9]: 0.204 µM
EC50 [1, 10]: 0.192 µM
EC50 [1, 11]: 0.527 µM
EC50 [1, 12]: 1.28 µM
EC50 [1, 13]: 0.158 µM
EC50 [1, 14]: 1.19 µM
EC50 [1, 15]: 0.32 µM
EC50 [1, 16]: 0.517 µM
EC50 [1, 17]: 0.614 µM
EC50 [1, 18]: 1.45 µM
EC50 [1, 19]: 2.67 µM
EC50 [1, 20]: 0.274 µM
EC50 [2, 21]: 0.497 µM
EC50 [2, 22]: 0.574 µM
EC50 [2, 23]: 0.465 µM
EC50 [2, 24]: 0.677 µM
EC50 [2, 25]: 0.153 µM
EC50 [2, 26]: 0.796 µM
EC50 (CLK2): 4.5 nM
EC50 [3, 27]: 1230 nM
EC50 [3, 28]: 1030 nM
EC50 [3, 29]: 937 nM
EC50 [3, 30]: 296 nM
EC50 [3, 31]: 2110 nM
EC50 [3, 32]: 808 nM
EC50 [3, 33]: 547 nM
EC50 (CLK3): 21.4 nM
EC50 [4, 34]: 1.05 µM
EC50 [4, 35]: 0.873 µM
EC50 [4, 36]: 1.88 µM
EC50 [4, 37]: 0.569 µM
EC50 [5, 38]: 0.841 µM
EC50 [5, 39]: 1.29 µM
EC50 [5, 40]: 0.697 µM
EC50 [5, 41]: 0.33 µM
EC50 (CAMA1): 1410 nM
EC50 (MCF7): 1900 nM
EC50 (HCC1599): 2300 nM
EC50 (DU4475): 540 nM
EC50 (ZR-75-1): 1440 nM
EC50 (BT-549): 1030 nM
EC50 (T47D): 7190 nM
EC50 (MDA-MB-231-Luc): 1220 nM
EC50 [6, 42]: 167 nM
EC50 [6, 43]: 6400 nM
EC50 [6, 44]: 1560 nM
EC50 [7, 45]: 772 nM
EC50 [7, 46]: 907 nM
EC50 [7, 47]: 532 nM
EC50 [7, 48]: 1190 nM
EC50 [7, 49]: 728 nM
Compound: CN1CCC(Sc2ccc3cnc(NC(=O)c4ccnc(SC5CCN(C)CC5)c4)cc3c2)CC1 [Compound 88]
EC50 (all 50 cell lines): 1150 nM
